We go through 32 compounds from patent publication US20080140036A1, “Antimicrobial Composition” (priority 2004, published 2008).

Structures are written as SMILES.

In one series the test system is Candida Albicans. The experiment in a line: Franz cell bioassay, infected stratum corneum sheet, ATP assay. Particulars: after 2 hours incubation, FIG. 6. The class given is cell-based. Here is the method:
The concentration of organisms in suspension was determined by fluorescence technique and a viable count used for confirmation by conducting an ATP assay where ATP in cell lysate represents a measure for viable cells. Therefore, the number of viable cells after exposure to drug can be measured for drug activity and was used for suspension method or skin model.
Stratum corneum (SC) sheets were infected with microorganisms in-vitro and a Franz cell was set-up to provide more realistic conditions than agar plate test
A sample of Candida albicans (5×10^7) was dried on the stratum corneum sheet and PBS used as receiver fluid. The Micap formulations were used at 10% aqueous suspensions and the Micap formulations and Pevaryl® were applied to the stratum corneum sheet and incubated at 37° C. The reaction was stopped after set time by dismantling the Franz cell and transferring the stratum corneum into TCA. ATP assay was then carried out on the cell lysate to determine activity.
The compound `CCO` [20% ethanol, ethanol] gave an ATP remaining of 75%.

System in a further series: not given
Assay: not given
Particulars: cited from earlier work.
For the compound `CCCCCCCC1CCCC(=O)O1` (racemic) [(+−)-5-dodecanolide], the “logP(o/w)” value is listed as 4.0.

Regarding `Fc1cc(F)cc(F)c1` [1,3,5-Trifluorobenzene], the “logP(o/w)” value is 2.6.

`Fc1cccc(F)c1` [1,3-Difluorobenzene]: the “logP(o/w)” value is recorded as 2.4.

Regarding `C=CC(C)(CCC=C(C)C)OC(=O)CCCCC` (centres unmarked) [1,5-dimethyl-1-vinyl-4-hexenyl hexanoate], the “logP(o/w)” value is on record as 4.5.

Take `CCCCCCCCN1CCCC1=O` [1-octyl-2-pyrrolidinone]: the “logP(o/w)” value is on record as 3.3.

Regarding `CC(C)c1ccccc1O` [2-isopropyl phenol], the “logP(o/w)” value is reported as 2.7.

Take `CCCCC(C)C(=O)O` (centres unmarked) [2-methyl hexanoic acid]: the “logP(o/w)” value is recorded as 2.1.

For the compound `CC(C)=CC(=O)OCCc1ccccc1` [2-phenylethyl 3-methyl-2-butenoate], the “logP(o/w)” value was 2.7.

In the case of `Cc1cccc(I)c1` [3-Iodotoluene], the “logP(o/w)” value was 3.7.

Consider `CC(C)CCN` [3-methyl butylamine], for which the “logP(o/w)” value is recorded as 1.1.

For `CCc1ccc(O)c(OC)c1` [4-ethyl-2-methoxy phenol], the “logP(o/w)” value is 2.4.

`CC/C=C\CCOC(=O)C(C)CC` (centres unmarked) [(Z)-3-hexenyl 2-methylbutanoate]: the “logP(o/w)” value is 2.8.

As to `CC/C=C\CCOC(C)=O` [(Z)-3-hexenyl acetate], the “logP(o/w)” value is 1.5.

As for `CC/C=C\CCOC(=O)CCC` [(Z)-3-hexenyl butanoate], the “logP(o/w)” value is given as 2.4.

In the case of `CCCCCCCCCC` [Decane], the “logP(o/w)” value is reported as 5.3.

With `COC(=O)CCCCC(=O)OC` [Dimethyl adipate], the “logP(o/w)” value is 1.4.

For `CCCCCCCO` [Micap 1-Heptanol, 1-Heptanol], the “logP(o/w)” value is listed as 3.1.

Consider `CCCCCC1CCCC(=O)O1` (centres unmarked) [Micap 5-decanolide, 5-decanolide], for which the “logP(o/w)” value is recorded as 3.1.

For the compound `CCCCCCCCC` [Nonane], the “logP(o/w)” value is 4.8.

As for `CCCCCCCCCCCCCC` [Tetradecane], the “logP(o/w)” value is listed as 7.2.

On to `CCCSSCCC` [dipropyl disulfide], for which the “logP(o/w)” value is recorded as 3.7.

`CCOC(=O)CC(C)C` [ethyl 3-methylbutanoate]: the “logP(o/w)” value is given as 1.8.

For the compound `CC/C=C/CC(=O)OCC` [ethyl (E)-3-hexenoate], the “logP(o/w)” value is 1.7.

Turning to `CCCCCC(=O)OCC` [ethyl hexanoate], the “logP(o/w)” value is given as 2.3.

Regarding `CCCCCCCCC(=O)OCC` [ethyl nonanoate], the “logP(o/w)” value was 3.7.

Turning to `CCCCCC(C)=O` [heptan-2-one], the “logP(o/w)” value is 1.9.

Consider `CCCCCCC(C)=O` [octan-2-one], for which the “logP(o/w)” value is 2.3.

As for `CCCCCCCCO` [octanol], the “logP(o/w)” value was 2.8.

With `CCCCCCCCOC(C)=O` [octyl acetate], the “logP(o/w)” value was 3.3.

As for `CCCCCCCCOC(=O)C(C)C` [octyl isobutyrate], the “logP(o/w)” value is reported as 4.2.

As for `CC(=O)OCC(COC(C)=O)OC(C)=O` [triacetin], the “logP(o/w)” value was 0.4.
